Experimental data as given in article PMC7539012, “Hyperphosphorylated tau aggregation and cytotoxicity modulators screen identified prescription drugs linked to Alzheimer's disease and cognitive functions” (Scientific Reports, 2020).
Counter-ions that a name gives are not always drawn. Where a SMILES comes first, the peptide text is derived from it. [ ]: non-standard residue; d: D form. pGlu = O=C1CC[C@@H](C(=O)O)N1; Thz = O=C(O)[C@@H]1CSCN1

tested on: T1, 1N4R p-tau; assay: p-tau aggregation modulator screen of 1280-compound library (ThS fluorescence net change over 16 h); format: biochemical; conditions: not given;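 further: 30 µM compound with 6 µM p-tau over 16 h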
T1 construct: made in house; host or cells: E. coli (PIMAX system)

Compared with Tropisetron HCl, O=C([O-])[C@H]1/C(=C/CO)O[C@@H]2CC(=O)N21.[K+] [Clavulanate potassium salt] is higher in ThS net change: 428 for the first, 431 for the second.

Compared with CC(C)NC[C@H](O)COc1cccc2ccccc12 [(S)-propranolol hydrochloride], C[C@]12CC[C@H]3[C@@H](CCC4=CC(=O)CC[C@@H]43)[C@@H]1CC[C@@H]2O [Nandrolone] is higher in ThS net change: 434 for the first, 479 for the second.

First: NCC[C@H](O)C(=O)N[C@@H]1C[C@H](N)[C@@H](O[C@H]2O[C@H](CN)[C@@H](O)[C@H](O)[C@H]2O)[C@H](O)[C@H]1O[C@H]1O[C@H](CO)[C@@H](O)[C@H](N)[C@H]1O.O.O [Amikacin hydrate]
Second: NCCCC(O)(P(=O)(O)O)P(=O)(O)O [Alendronate sodium]
The ThS net change of the first is higher: 418 for the first, 381 for the second.

Compared with Lymecycline, C[C@]12C[C@H]3S[C@H]3C[C@@H]1CC[C@@H]1[C@@H]2CC[C@]2(C)[C@@H](O)CC[C@@H]12 [Epitiostanol] is higher in ThS net change: 312 for the first, 421 for the second.

C/C(=C(/CCO)SSCC1CCCO1)N(C=O)Cc1cnc(C)nc1N.Cl (centres unmarked) [Fursultiamine Hydrochloride] showed a ThS net change of 360.

same assay, conditions: 1280-compound library screen; ThS fluorescence net change over 16 h

First: CC(C)(Oc1ccc(CCNC(=O)c2ccc(Cl)cc2)cc1)C(=O)O [Bezafibrate]
Second: O=C(NC(Cc1cc(=O)[nH]c2ccccc12)C(=O)O)c1ccc(Cl)cc1 (centres unmarked) [Rebamipide]
The ThS net change of the first is higher: 389 for the first, 378 for the second.

Going from CC(C(=O)O)c1ccc(C(=O)c2cccs2)cc1 (centres unmarked) [Suprofen] to Cc1cc(C(=O)NNCc2ccccc2)no1 [Isocarboxazid], the ThS net change rises from 391 to 400.

First: CCCOc1cc(N)ccc1C(=O)OCCN(CC)CC [Propoxycaine hydrochloride]
Second: CCCc1cc(C(N)=S)ccn1 [Prothionamide]
The ThS net change of the first is lower: 403 for the first, 412 for the second.

Compared with CC1(C)O[C@@H]2[C@@H](CO[C@@]3(COS(N)(=O)=O)OC(C)(C)O[C@@H]23)O1 [Topiramate], O=C1CCc2ccc(OCCCCN3CCN(c4cccc(Cl)c4Cl)CC3)cc2N1 [Aripiprazole] is lower in ThS net change: 392 for the first, 386 for the second.

First: CC(N/C(=N\C#N)Nc1ccncc1)C(C)(C)C (centres unmarked) [Pinacidil]
Second: Nc1nc2c(ncn2CCC(CO)CO)c(=O)[nH]1 [Penciclovir]
The ThS net change of the first is lower: 391 for the first, 397 for the second.

same assay, conditions: 1280-compound library screen; […]

Going from C[N+]1(C)CCOC(O)(c2ccc(-c3ccc(C4(O)C[N+](C)(C)CCO4)cc3)cc2)C1.[Br-].[Br-] (centres unmarked) [Hemicholinium bromide] to CN1CCc2c(c3ccccc3n2Cc2ccccc2)C1.O=S(=O)(O)c1cccc2c(S(=O)(=O)O)cccc12 [Mebhydroline 1,5-naphtalenedisulfonate], the ThS net change rises from 379 to 385.

With CN(C)C(=O)Oc1cccc([N+](C)(C)C)c1 [Neostigmine bromide] the ThS net change was 409.

same assay, conditions: library screen, ThS fluorescence net change over 16 h with p-tau

Compared with CC(=O)c1ccc2c(c1)N(CCCN1CCC(CCO)CC1)c1ccccc1S2 [Piperacetazine], CN1CCN(CCCN2c3ccccc3Sc3ccc(C(F)(F)F)cc32)CC1 [Trifluoperazine dihydrochloride] is higher in ThS net change: 243 for the first, 299 for the second.

Compared with O=C1CN(/N=C/c2ccc([N+](=O)[O-])o2)C(=O)N1 [Nitrofurantoin], CCCCOc1cc(C(=O)NCCN(CC)CC)c2ccccc2n1 [Dibucaine] is lower in ThS net change: 303 for the first, 296 for the second.

First: OC(c1cc(C(F)(F)F)nc2c(C(F)(F)F)cccc12)C1CCCCN1 (centres unmarked) [Mefloquine hydrochloride]
Second: CSc1ccc2c(c1)N(CCC1CCCCN1C)c1ccccc1S2 (centres unmarked) [Thioridazine hydrochloride]
The ThS net change of the first is higher: 304 for the first, 252 for the second.

same assay, conditions: p-tau aggregation modulator screen of 1280-compound library; ThS fluorescence net change

First: CS(=O)(=O)O.OC(CCN1CCCCC1)(c1ccccc1)c1ccccc1 [Pridinol methanesulfonate salt]
Second: OC(CCN1CCCC1)(c1ccccc1)C1CCCCC1 (centres unmarked) [Procyclidine hydrochloride]
The ThS net change of the first is higher: 350 for the first, 347 for the second.

Going from COC(=O)C1=C(C)NC(C)=C(C(=O)OC(C)C)C1c1cccc2nonc12 (centres unmarked) [Isradipine] to COC1=CC(=O)C[C@@H](C)[C@]12Oc1c(Cl)c(OC)cc(OC)c1C2=O [Griseofulvin], the ThS net change falls from 372 to 337.

Going from CC(NCCc1ccc(O)cc1)C(O)c1ccc(O)cc1 (centres unmarked) [Ritodrine hydrochloride] to CC(NCCC(c1ccccc1)c1ccccc1)c1ccccc1 (centres unmarked) [Fendiline hydrochloride], the ThS net change falls from 363 to 335.

First: C[C@H](CCC(=O)O)[C@H]1CC[C@H]2[C@@H]3C(=O)C[C@@H]4CC(=O)CC[C@]4(C)[C@H]3CC(=O)[C@]12C [Dehydrocholic acid]
Second: CCn1cc(C(=O)O)c(=O)c2cc(F)c(N3CCNCC3)nc21 [Enoxacin]
The ThS net change of the first is lower: 331 for the first, 378 for the second.

Going from CC(=O)N1CCN(c2ccc(OCC3COC(Cn4ccnc4)(c4ccc(Cl)cc4Cl)O3)cc2)CC1 (centres unmarked) [Ketoconazole] to CN(C)CCC[C@@]1(c2ccc(F)cc2)OCc2cc(C#N)ccc21 [Escitalopram oxalate], the ThS net change rises from 350 to 374.

First: Cc1ncc([N+](=O)[O-])n1CCO [Metronidazole]
Second: CCc1cc(C(N)=S)ccn1 [Ethionamide]
The ThS net change of the first is higher: 365 for the first, 360 for the second.

Compared with C(=C\c1ccccc1)/CN1CCN(C(c2ccccc2)c2ccccc2)CC1 [Cinnarizine], OCCN1CCN(CCCN2c3ccccc3C=Cc3ccccc32)CC1 [Opipramol dihydrochloride] is lower in ThS net change: 356 for the first, 343 for the second.

First: CC(CN(C)C)C(C)(O)Cc1ccc(Cl)cc1.Cl (centres unmarked) [Clobutinol hydrochloride]
Second: CNCCC=C1c2ccccc2C=Cc2ccccc21 [Norcyclobenzaprine]
The ThS net change of the first is lower: 336 for the first, 372 for the second.

Compared with NCc1ccccc1CC(=O)N[C@@H]1C(=O)N2C(C(=O)O)=C(CSc3nnnn3CC(=O)O)CS[C@H]12 [Ceforanide], CO[C@@]1(NC(=O)Cc2cccs2)C(=O)N2C(C(=O)O)=C(COC(N)=O)CS[C@@H]21 [Cefoxitin sodium salt] is higher in ThS net change: 351 for the first, 354 for the second.

Compared with CN1C(C(=O)Nc2ccccn2)=C(O)c2ccccc2S1(=O)=O [Piroxicam], O=C(NCCNCC(O)COc1ccc(O)cc1)N1CCOCC1 (centres unmarked) [Xamoterol hemifumarate] is higher in ThS net change: 329 for the first, 378 for the second.

Compound N=C(N)NCC1COC2(CCCCC2)O1.N=C(N)NCC1COC2(CCCCC2)O1.O=S(=O)(O)O (centres unmarked) [Guanadrel sulfate] has a ThS net change of 373.

same assay, conditions: p-tau aggregation modulator screen of 1280-compound library; […]

First: CN1CC2c3ccccc3Oc3ccc(Cl)cc3C2C1 (centres unmarked) [Asenapine maleate]
Second: C[N+]1(C)CCCC(OC(=O)C(O)(c2ccccc2)c2ccccc2)C1 (centres unmarked) [Mepenzolate bromide]
The ThS net change of the first is higher: 375 for the first, 366 for the second.

COc1c(O[C@@H]2O[C@H](CO)[C@@H](O)[C@H](O)[C@H]2O)cc2c(c1OC)-c1ccc(SC)c(=O)cc1[C@@H](NC(C)=O)CC2 [Thiocolchicoside] showed a ThS net change of 370.

same assay, conditions: p-tau aggregation modulator screen of the compound library, ThS fluorescence net change

Going from COc1ccc2[nH]c([S+]([O-])Cc3ncc(C)c(OC)c3C)nc2c1 (centres unmarked) [Omeprazole] to COc1ccccc1Oc1c(NS(=O)(=O)c2ccc(C(C)(C)C)cc2)nc(-c2ncccn2)nc1OCCO [Bosentan], the ThS net change falls from 454 to 453.

Going from Nc1nc(/C(=C/CC(=O)O)C(=O)N[C@@H]2C(=O)N3C(C(=O)O)=CCS[C@H]23)cs1 [Ceftibuten] to CC(=O)OCC1=C(C(=O)O)N2C(=O)[C@@H](NC(=O)Cc3cccs3)[C@H]2SC1 [Cephalothin sodium salt], the ThS net change rises from 441 to 446.

Compared with CNC(C)CCC=C(C)C.CNC(C)CCC=C(C)C.O=C(O)C(O)C(O)C(O)C(O)C(=O)O (centres unmarked) [Isometheptene mucate], CC1(C)[C@@H](OC(=O)CCC(=O)O)CC[C@]2(C)[C@H]3C(=O)C=C4[C@@H]5C[C@@](C)(C(=O)O)CC[C@]5(C)CC[C@@]4(C)[C@]3(C)CC[C@@H]12 [Carbenoxolone disodium salt] is lower in ThS net change: 481 for the first, 460 for the second.

First: OCC(O)CN1CCN(c2ccccc2)CC1 (racemic) [Dropropizine (R,S)]
Second: CCOC(=O)[C@H](CCc1ccccc1)N[C@@H](C)C(=O)N1[C@H](C(=O)O)C[C@@H]2CCC[C@@H]21 [Ramipril]
The ThS net change of the first is lower: 418 for the first, 436 for the second.

Compared with C[C@]12CC[C@@H]3c4ccc(O)cc4CC[C@H]3[C@@H]1C[C@@H](O)[C@@H]2O [Estriol], C#C[C@]1(O)CC[C@H]2[C@@H]3CCC4=CC(=O)CC[C@@H]4[C@H]3CC[C@@]21CC [Norgestrel-(-)-D] is lower in ThS net change: 440 for the first, 424 for the second.

Compared with CCC1=C(C)CN(C(=O)NCCc2ccc(S(=O)(=O)NC(=O)N[C@H]3CC[C@H](C)CC3)cc2)C1=O [Glimepiride], COc1ccc2c(c1)C(=O)N(CCc1ccc(S(=O)(=O)NC(=O)NC3CCCCC3)cc1)C(=O)C2(C)C [Gliquidone] is higher in ThS net change: 415 for the first, 492 for the second.

Compared with CN(C)CCC=C1c2ccccc2C=Cc2ccccc21 [Cyclobenzaprine hydrochloride], CN[C@H]1CC[C@@H](c2ccc(Cl)c(Cl)c2)c2ccccc21 [Sertraline] is higher in ThS net change: 414 for the first, 428 for the second.

Compared with CC(C)(C)C(=O)OCOC(=O)[C@@H]1N2C(=O)[C@@H](NC(=O)[C@H](N)c3ccccc3)[C@H]2SC1(C)C [Pivampicillin], C[C@](N)(Cc1ccc(O)c(O)c1)C(=O)O [Methyldopa (L,-)] is lower in ThS net change: 481 for the first, 447 for the second.

Going from CNC(=O)c1c(I)c(C(=O)NCC(=O)Nc2c(I)c(C(=O)O)c(I)c(C(=O)NCCO)c2I)c(I)c(N(C)C(C)=O)c1I [Ioxaglic acid] to CCN1CCCC1CNC(=O)c1cc(S(=O)(=O)CC)c(N)cc1OC (centres unmarked) [Amisulpride], the ThS net change falls from 442 to 428.

Going from CS(=O)(=O)c1ccc([C@@H](O)[C@@H](CF)NC(=O)C(Cl)Cl)cc1 [Florfenicol] to O=C1CC2(CCCC2)CC(=O)N1CCCCN1CCN(c2ncccn2)CC1 [Buspirone hydrochloride], the ThS net change rises from 433 to 445.

Compared with O=C1CC[C@@H](C(=O)N2CSC[C@H]2C(=O)O)N1 [Pidotimod] ([pGlu]-[Thz]-OH), S=c1[nH]cnc2nc[nH]c12 [Mercaptopurine] is lower in ThS net change: 441 for the first, 426 for the second.
